{"source": "patent US20230000844A1", "about": "“BIOMARKERS FOR NANOPARTICLE COMPOSITIONS” (Abraxis BioScience, LLC, priority 2019, published 2023)", "key": {"[1]": {"test": "Stable isotope tracer ultrafiltration assay (SITUA) of rapamycin drug release from ABI-009 lots", "assay_type": "physicochemical", "settings": "10 minutes incubation, 4.5% human serum albumin, 29° C.", "description": "A study was also undertaken to analyze rapamycin drug release from 12 lots of ABI-009 (Lots #1-10 and Lots 14-15) using a stable isotope tracer ultrafiltration assay (SITUA) (see Skoczen et al., Stable Isotope Method to Measure Drug Release from Nanomedicines, J. Control Release, 220(A):169-174 (2015). Drug release was examined at 10 μg/ml and 500 μg/ml of rapamycin following 10 minutes of incubation. Briefly, stable, isotope-labeled rapamycin was spiked into 4.5% human serum albumin (25% Albutein HSA diluted in 0.9% saline). MeOH-solvent rapamycin (as a control) or fresh reconstituted samples of each lot at 10 μg/ml or 500 μg/ml were added. After 10 minutes of equilibration at 29° C., a portion of the sample is taken and filtered using Vivacon®) 10 kDa MWCO centrifuge devices prewarmed to 29° C. The sample and the ultrafiltrate are analyzed by LC-MS to determine the concentrations of normal rapamycin and isotope-labelled rapamycin. The ultrafilterable fraction of isotope-labeled rapamycin represents a measurement of free unbound fraction.\nThe encapsulated and unencapsulated nanoparticle fractions can also be calculated."}, "[2]": {"test_system": "non-PEComa cancer with TSC1, TSC2 or mTOR mutation", "test": "ABI-009 Expanded Access Protocol: single-agent ABI-009 in non-PEComa patients with relevant mTOR pathway mutations", "assay_type": "in vivo, human", "parameters": "key: CR: disappearance of all target lesions; PR: at least a 30% decrease in the sum of the longest diameters (SLD) of target lesions; SD: neither sufficient shrinkage of target lesions to qualify for PR, nor sufficient increase to qualify for PD; PD: at least a 20% increase in the SLD of target lesions", "settings": "Patient #4, metastatic epithelial ovarian carcinoma", "excerpt": "Seven patients were enrolled under ABI-009 Expanded Access Protocol. See Table 14 below for information about their tumor type, relevant mutation, failed prior therapy and response to ABI-009. ABI-009 was produced according to Example 7."}, "[3]": {"settings": "in vivo; cited from earlier work"}, "ABCB1/ABCG2": {"test_system": "ABCB1/ABCG2", "settings": "cited from earlier work"}, "malignant PEComa": {"test_system": "malignant PEComa", "test": "Case: malignant PEComa patient (TSC1 mutation) who failed everolimus, then treated with nab-sirolimus", "assay_type": "in vivo, human", "description": "A post-menopausal person with family history of lymphoma in their parent and breast, ovarian cancer in a paternal aunt, presented with abnormal uterine bleeding in July 2018. […] Following this, a laparoscopic hysterectomy with bilateral salpingo-oophorectomy was performed and pathology was consistent with malignant PEComa which stained positive for smooth muscle actin, HMB-45 and Melan-A (59 mitoses per 10 hpf).\nThe primary tumor was locally advanced, and no metastatic disease was present at the time of diagnosis, adjuvant chemotherapy was not administered, and the patient was monitored with serial scans.\nUpon disease progression, the patient was started on 10 mg everolimus orally daily.\nAfter failure of treatment with everolimus, the patient was treated with nab-sirolimus at 100 mg/m^2 on day 1 and day 8 of a 21 day cycle started in July of 2019. They also received stereotactic radiosurgery to the metastatic lesion in their brain."}, "[4]": {"test_system": "tumors with TSC1 or TSC2 mutations", "settings": "2/30 patients; cited from earlier work"}}}
{"smiles": "CO[C@H]1C[C@@H]2CC[C@@H](C)[C@@](O)(O2)C(=O)C(=O)N2CCCC[C@H]2C(=O)O[C@H]([C@H](C)C[C@@H]2CC[C@@H](O)[C@H](OC)C2)CC(=O)[C@H](C)/C=C(\\C)[C@@H](O)[C@@H](OC)C(=O)[C@H](C)C[C@H](C)/C=C/C=C/C=C/1C", "note": "[Free rapamycin]", "values": [{"measurement": "Avg. Release (%)", "setting": "[1]; 10 μg/ml rapamycin", "result": 97.2, "unit": "%"}, {"measurement": "Avg. Release (%)", "setting": "[1]; 500 μg/ml rapamycin", "result": 18.3, "unit": "%"}]}
{"smiles": "CC(C)n1nc(-c2ccc3oc(N)nc3c2)c2c(N)ncnc21", "note": "[MLN0128]", "values": [{"measurement": "best response on prior MLN0128", "setting": "[2]", "result": "SD"}]}
{"smiles": "COc1ccc(COc2cc3oc(=O)c4cc(C(C)O)ccc4c3cc2OC)cc1", "note": "(centres unmarked) [Palomid 529]", "values": [{"measurement": "brain penetration", "setting": "[3]", "result": "good brain penetration"}, {"measurement": "affinity for ABCB1/ABCG2", "setting": "ABCB1/ABCG2", "result": "lacks affinity"}]}
{"smiles": "CO[C@H]1C[C@@H]2CC[C@@H](C)[C@@](O)(O2)C(=O)C(=O)N2CCCC[C@H]2C(=O)O[C@H]([C@H](C)C[C@@H]2CC[C@@H](OCCO)[C@H](OC)C2)CC(=O)[C@H](C)/C=C(\\C)[C@@H](O)[C@@H](OC)C(=O)[C@H](C)C[C@H](C)/C=C/C=C/C=C/1C", "note": "[everolimus]", "values": [{"measurement": "CT scan result 2 months after starting everolimus", "setting": "malignant PEComa; everolimus 10 mg orally daily, reduced to 5 mg", "result": "progressive disease"}, {"measurement": "adverse event related to everolimus", "setting": "malignant PEComa; three weeks after beginning 10 mg orally daily", "result": "hospitalized due to fever and headache"}, {"measurement": "responses in patients with TSC1 or TSC2 mutations", "setting": "[4]", "result": 7, "unit": "%"}]}
